Measured values from patent US12473294B2, “Selective modulators of mutant LRRK2 proteolysis and associated methods of use” (Arvinas Operations, Inc., priority 2020, dated 2025).

What was measured:
[1] = molecular target: T1, G2019S LRRK2 (Homo sapiens, UniProt Q5S007, G2019S); experiment: LRRK2 degradation HiBit assay, G2019S LRRK2 tagged with a HiBit tag expressed in HEK293 cells; type: cell-based; settings: 24 hours compound incubation; for Dmax: HEK293, HEK293 cells; for DC50: HEK293 cells
T1 construct: expressed in transfected cells; host or cells: HEK293 (ATCC CRL-1573)
T1 sequence (Q5S007 whole entry G2019S): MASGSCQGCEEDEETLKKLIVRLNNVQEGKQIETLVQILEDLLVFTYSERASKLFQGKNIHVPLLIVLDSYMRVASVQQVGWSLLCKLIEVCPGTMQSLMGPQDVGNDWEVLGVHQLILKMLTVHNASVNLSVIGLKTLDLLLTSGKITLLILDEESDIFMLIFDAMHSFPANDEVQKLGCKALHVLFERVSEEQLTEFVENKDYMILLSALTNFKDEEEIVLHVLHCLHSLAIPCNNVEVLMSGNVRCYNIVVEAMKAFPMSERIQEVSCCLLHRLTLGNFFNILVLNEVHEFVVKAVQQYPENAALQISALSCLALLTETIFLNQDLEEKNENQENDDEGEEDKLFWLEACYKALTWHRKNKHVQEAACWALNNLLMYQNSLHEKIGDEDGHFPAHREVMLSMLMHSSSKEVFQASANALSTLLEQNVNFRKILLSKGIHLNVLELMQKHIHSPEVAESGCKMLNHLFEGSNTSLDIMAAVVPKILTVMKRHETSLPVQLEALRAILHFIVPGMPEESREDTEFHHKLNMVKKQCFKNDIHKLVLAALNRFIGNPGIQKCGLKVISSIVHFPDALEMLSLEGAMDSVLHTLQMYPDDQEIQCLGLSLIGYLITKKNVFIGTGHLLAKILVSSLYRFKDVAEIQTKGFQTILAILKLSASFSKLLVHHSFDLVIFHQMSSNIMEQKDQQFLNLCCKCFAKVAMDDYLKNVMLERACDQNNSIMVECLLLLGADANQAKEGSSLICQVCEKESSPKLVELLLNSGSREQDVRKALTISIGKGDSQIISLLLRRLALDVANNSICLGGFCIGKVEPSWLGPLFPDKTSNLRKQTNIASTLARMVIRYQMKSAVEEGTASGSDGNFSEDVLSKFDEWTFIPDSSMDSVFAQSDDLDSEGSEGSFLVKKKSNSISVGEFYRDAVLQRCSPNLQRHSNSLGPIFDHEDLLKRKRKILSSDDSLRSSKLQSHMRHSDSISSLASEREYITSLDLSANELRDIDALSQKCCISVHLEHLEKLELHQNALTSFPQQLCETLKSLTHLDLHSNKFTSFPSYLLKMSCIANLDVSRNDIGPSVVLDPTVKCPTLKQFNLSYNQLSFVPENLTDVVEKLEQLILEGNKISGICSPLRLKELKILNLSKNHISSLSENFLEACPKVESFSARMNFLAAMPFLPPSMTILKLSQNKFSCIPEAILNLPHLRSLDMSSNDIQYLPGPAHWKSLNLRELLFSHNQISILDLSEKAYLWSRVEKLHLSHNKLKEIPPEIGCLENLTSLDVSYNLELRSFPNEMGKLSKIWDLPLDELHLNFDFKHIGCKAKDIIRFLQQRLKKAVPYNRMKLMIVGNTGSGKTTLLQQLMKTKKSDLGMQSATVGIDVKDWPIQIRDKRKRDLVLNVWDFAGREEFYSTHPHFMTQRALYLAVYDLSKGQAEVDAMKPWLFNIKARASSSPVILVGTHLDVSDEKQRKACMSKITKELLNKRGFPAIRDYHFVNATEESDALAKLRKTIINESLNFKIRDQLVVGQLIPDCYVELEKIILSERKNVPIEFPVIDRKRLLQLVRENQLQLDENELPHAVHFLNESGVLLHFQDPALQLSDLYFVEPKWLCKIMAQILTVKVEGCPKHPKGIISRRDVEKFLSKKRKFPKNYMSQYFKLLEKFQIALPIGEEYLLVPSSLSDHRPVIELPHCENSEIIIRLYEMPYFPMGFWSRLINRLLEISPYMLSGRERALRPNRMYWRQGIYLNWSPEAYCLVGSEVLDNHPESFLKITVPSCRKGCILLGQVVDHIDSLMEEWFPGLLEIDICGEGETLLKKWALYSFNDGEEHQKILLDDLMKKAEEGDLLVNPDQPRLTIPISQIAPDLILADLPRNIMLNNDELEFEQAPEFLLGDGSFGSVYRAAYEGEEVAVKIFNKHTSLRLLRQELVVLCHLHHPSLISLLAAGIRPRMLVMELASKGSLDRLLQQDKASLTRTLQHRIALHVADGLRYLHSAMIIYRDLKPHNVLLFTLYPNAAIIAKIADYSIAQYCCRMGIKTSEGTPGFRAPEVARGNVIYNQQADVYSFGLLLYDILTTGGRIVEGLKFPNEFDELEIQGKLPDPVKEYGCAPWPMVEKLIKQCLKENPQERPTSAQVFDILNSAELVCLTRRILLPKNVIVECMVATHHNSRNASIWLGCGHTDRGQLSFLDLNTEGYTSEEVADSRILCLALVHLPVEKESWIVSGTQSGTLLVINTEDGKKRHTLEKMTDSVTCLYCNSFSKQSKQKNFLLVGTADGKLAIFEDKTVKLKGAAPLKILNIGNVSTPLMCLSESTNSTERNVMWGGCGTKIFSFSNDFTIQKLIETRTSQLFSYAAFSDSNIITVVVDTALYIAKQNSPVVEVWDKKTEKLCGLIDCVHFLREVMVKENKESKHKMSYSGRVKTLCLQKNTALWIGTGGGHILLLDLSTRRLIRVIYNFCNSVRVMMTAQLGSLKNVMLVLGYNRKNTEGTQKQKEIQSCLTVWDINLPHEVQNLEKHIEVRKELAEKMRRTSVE
Experimental: (§1) The assay measures the degradation of wildtype and G2019S LRRK2 tagged with a HiBit tag on the C-terminus of the protein that was expressed from a mammalian expression vector, driven by the ubiquitin promoter in HEK293 cells. Each compound dose-response was repeated on three separate days, on three separate plates each day.
(§2) Plasmid Preparation. Transfection mixes were assembled as follows and incubated for 30 minutes at room temperature. In a 15 mL tube, 5.25 mL Opti-MEM (no additions) was mixed with 17 μL Firefly Luciferase plasmid at 1 μg/μL and 158 μL WT plasmid DNA at 1 μg/μL (175 μg total DNA) were mixed by flicking. In a new 15 mL tube, 5.25 mL OptiMEM was mixed with 17 μL Firefly Luciferase plasmid at 1 μg/μL and 158 μL G2019S plasmid DNA at 1 μg/μL (175 μg total DNA) were mixed by flicking. X-tremeGene HP was mixed thoroughly using a vortex. Next, 175 μL was added to each tube and flicked to mix. Both tubes were left to incubate for 30 minutes at room temperature.
While the transfection mixes were incubating, HEK293 cells acquired from ATCC (ATCC CRL-1573) were harvested with trypsin. Once cells are detached, the cells were resuspended in 12 mL OptiMEM+5% FBS and transferred to a 50 mL tube. The cells were mixed well and counted. Using OptiMEM+5% FBS, the cells were diluted in two 250 mL conical tubes at 0.71×10^6 cells/mL in 70 mL. One tube was labeled “WT” and the other “G2019S”. The WT and G2019S transfection mixes were added dropwise to the corresponding 250 mL tubes. The tubes were mixed first by pipetting then by swirling. The tubes were incubated at room temperature for at least 5 minutes.
(§3) Each tube was swirled before dispensing and after every three plates. Seventy microliters of cells were dispensed with WT or G2019S DNA to seven plates each. Three plates of each were tested with compound plate one (preparation described below) and three plates of each were tested with compound plate two (preparation described below). The first plate from each set served as a “prime” plate and was not used to test compounds. Each plate was incubated in the hood for 10 minutes before placing in the 37° C. incubator for 24 hours.
(§4) Preparation of Compound and Assay Plates. Two compound plates were made using 96 well polypropylene plates. Compounds were made up at 10 mM and were diluted to 1 mM in 30 μL. Each dose response curve included a well of DMSO, as a negative control and for normalization, and a well of 0.5 μM of Exemplary Compound 4 as a positive control. In addition to seven test compounds, each plate also included a dose response of Exemplary Compound 4. The compound plates were spun down along at 1200 rpm for 2 minutes.
(§5) The two compound plates were then mixed and 2 μL was diluted in intermediate plates having 248 μL of Opti-Mem in each well. Next, 10 μL diluted compounds from the intermediate plates were added to each test plate (three WT and three G2019S plates per compound plate for a total of 12 assay plates). The plates were incubated for 24 hours at 37° C.
(§6) All assay plates and all Nano-Glo Dual-Luciferase Reporter Assay System components (except for the DLR substrate) were equilibrated to room temperature. Next, the luciferase buffer was mixed with the lyophilized amber bottle until fully dissolved, and 75 μL of the luciferase mixture was added to each well of each assay plate. The assay plates were incubated for 10 minutes at room temperature with shaking for at least 5 minutes, and then read on a plate reader.
(§7) Developing Plates and Analyzing Data. One milliliter of DLR substrate and 1 mL LgBiT Protein were added to the Stop and Glo buffer, and 75 μL of the mixture was added to each well of each plate. Optically clear seals were added to each plate and each plate was incubated for 20 minutes with shaking for at least 10 minutes, and then read on a plate reader. […]

[2] = molecular target: T2, wildtype LRRK2 (Homo sapiens, UniProt Q5S007); experiment: LRRK2 degradation HiBit assay, wildtype LRRK2 tagged with a HiBit tag in HEK293 cells; type: cell-based; settings: 24 hours compound incubation; for Dmax: read-out: ** WT Dmax (%); for DC50: read-out: *WT DC50
T2 construct: endogenous in cells; host or cells: HEK293 with HiBit knocked in at the 3' end of the endogenous LRRK2 gene, stably expressing firefly luciferase
T2 sequence (Q5S007 whole entry): as the sequence (Q5S007 whole entry G2019S) above, with S2019G counted along it
Experimental: as §1, with “repeated on two separate days,” for “repeated on three separate days,”
as §2
While the transfection mixes were incubating, HEK293 cells (acquired from ATCC; ATCC CRL-1573) were harvested with trypsin. Once cells are detached, the cells were resuspended in 12 mL OptiMEM+5% FBS and transferred to a 50 mL tube. The cells were mixed well and counted. Using OptiMEM+5% FBS, the cells were diluted in two 250 mL conical tubes at 0.71×10^6 cells/mL in 70 mL. One tube was labeled “WT” and the other “G2019S”. The WT and G2019S transfection mixes were added dropwise to the corresponding 250 mL tubes. The tubes were mixed first by pipetting then by swirling. The tubes were incubated at room temperature for at least 5 minutes.
as §3, §4, §5, §6, §7

| SMILES | Dmax [1] | DC50 [1] | Dmax [2] | DC50 [2] |
| --- | --- | --- | --- | --- |
| CC1=C(C(=O)Nc2ccc3[nH]nc(-c4ccnc(N5CCN(CC6CCN(CC7CCN(c8ccc9c(c8)C(=O)N(C8CCC(=O)NC8=O)C9=O)CC7)CC6)CC5)c4)c3c2)Cn2nnnc2N1C (stereo not shown) [compound 13, N-(3-(2-(4-((1-((1-(2-(2,6-dioxopiperidin-3-yl)-1,3-dioxoisoindolin-5-yl)piperidin-4-yl)methyl)piperidin-4-yl)methyl)piperazin-1-yl)pyridin-4-yl)-1H-indazol-5-yl)-4,5-dimethyl-4,7-dihydrotetrazolo[1,5-a]pyrimidine-6-carboxamide] | 50 to 70% | 10 to 50 nM | < 50% | ≥ 100 nM |
| CC1=C(C(=O)Nc2ccc3[nH]nc(-c4ccnc(N5CCN(CCC6CCN(CC7CCN(c8ccc9c(c8)C(=O)N(C8CCC(=O)NC8=O)C9=O)CC7)CC6)CC5)c4)c3c2)[C@@H](C)n2nnnc2N1C (stereo partly drawn) [compound 14, (7R)-N-(3-(2-(4-(2-(1-((1-(2-(2,6-dioxopiperidin-3-yl)-1,3-dioxoisoindolin-5-yl)piperidin-4-yl)methyl)piperidin-4-yl)ethyl)piperazin-1-yl)pyridin-4-yl)-1H-indazol-5-yl)-4,5,7-trimethyl-4,7-dihydrotetrazolo[1,5-a]pyrimidine-6-carboxamide] | < 50% | 50 to 100 nM | 50 to 70% | ≥ 100 nM |
| CC1=C(C(=O)Nc2ccc3[nH]nc(-c4ccnc(N5CCN(CCCN6CCN(c7ccc8c(c7)C(=O)N(C7CCC(=O)NC7=O)C8=O)CC6)CC5)c4)c3c2)[C@@H](C)n2nnnc2N1C (stereo partly drawn) [compound 15, (7R)-N-(3-(2-(4-(3-(4-(2-(2,6-dioxopiperidin-3-yl)-1,3-dioxoisoindolin-5-yl)piperazin-1-yl)propyl)piperazin-1-yl)pyridin-4-yl)-1H-indazol-5-yl)-4,5,7-trimethyl-4,7-dihydrotetrazolo[1,5-a]pyrimidine-6-carboxamide] | 50 to 70% | 10 to 50 nM | 50 to 70% | ≥ 100 nM |
| CC1=C(C(=O)Nc2ccc3[nH]nc(-c4ccnc(N5CCN(CCOCCN6CC7(C6)CN(c6ccc8c(c6)C(=O)N(C6CCC(=O)NC6=O)C8=O)C7)CC5)c4)c3c2)[C@@H](C)n2nnnc2N1C (stereo partly drawn) [compound 20, (7R)-N-[3-(2-{4-[2-(2-{6-[2-(2,6-dioxopiperidin-3-yl)-1,3-dioxo-2,3-dihydro-1H-isoindol-5-yl]-2,6-diazaspiro[3.3]heptan-2-yl}ethoxy)ethyl]piperazin-1-yl}pyridin-4-yl)-1H-indazol-5-yl]-4,5,7-trimethyl-4H,7H-[1,2,3,4]tetrazolo[1,5-a]pyrimidine-6-carboxamide] | – | ≥ 100 nM | – | ≥ 100 nM |
| CC1=C(C(=O)Nc2ccc3[nH]nc(-c4ccnc(N5CCN(CC(F)(F)C6CCN(CC7CCN(c8ccc9c(c8)C(=O)N(C8CCC(=O)NC8=O)C9=O)CC7)CC6)CC5)c4)c3c2)[C@@H](C)n2nnnc2N1C (stereo partly drawn) [compound 22, (7R)-N-(3-(2-(4-(2-(1-((1-(2-(2,6-dioxopiperidin-3-yl)-1,3-dioxoisoindolin-5-yl)piperidin-4-yl)methyl)piperidin-4-yl)-2,2-difluoroethyl)piperazin-1-yl)pyridin-4-yl)-1H-indazol-5-yl)-4,5,7-trimethyl-4,7-dihydrotetrazolo[1,5-a]pyrimidine-6-carboxamide] | 50 to 70% | < 10 nM | 50 to 70% | < 10 nM |

Continued, values first:

| Dmax [1] | DC50 [1] | Dmax [2] | DC50 [2] | SMILES |
| --- | --- | --- | --- | --- |
| 50 to 70% | 50 to 100 nM | 50 to 70% | ≥ 100 nM | CC1=C(C(=O)Nc2ccc3[nH]nc(-c4ccnc(N5CCN(CC6CN(CC7CCN(c8ccc9c(c8)C(=O)N(C8CCC(=O)NC8=O)C9=O)CC7)C6)CC5)c4)c3c2)[C@@H](C)n2nnnc2N1C (stereo partly drawn) [compound 17, (7R)-N-(3-(2-(4-((1-((1-(2-(2,6-dioxopiperidin-3-yl)-1,3-dioxoisoindolin-5-yl)piperidin-4-yl)methyl)azetidin-3-yl)methyl)piperazin-1-yl)pyridin-4-yl)-1H-indazol-5-yl)-4,5,7-trimethyl-4,7-dihydrotetrazolo[1,5-a]pyrimidine-6-carboxamide] |
| 50 to 70% | 50 to 100 nM | < 50% | ≥ 100 nM | CC1=C(C(=O)Nc2ccc3[nH]nc(-c4ccnc(N5CCN(CC6CCN(C7CCN(c8ccc9c(c8)C(=O)N(C8CCC(=O)NC8=O)C9=O)CC7)CC6)CC5)c4)c3c2)[C@@H](C)n2nnnc2N1C (stereo partly drawn) [compound 18, (7R)-N-(3-(2-(4-((1-(1-(2-(2,6-dioxopiperidin-3-yl)-1,3-dioxoisoindolin-5-yl)piperidin-4-yl)piperidin-4-yl)methyl)piperazin-1-yl)pyridin-4-yl)-1H-indazol-5-yl)-4,5,7-trimethyl-4,7-dihydrotetrazolo[1,5-a]pyrimidine-6-carboxamide] |
| 50 to 70% | ≥ 100 nM | – | ≥ 100 nM | CC1=C(C(=O)Nc2ccc3[nH]nc(-c4ccnc(N5CCN(CCN6CCN(CC7CCN(c8ccc9c(c8)C(=O)N(C8CCC(=O)NC8=O)C9=O)CC7)CC6)CC5)c4)c3c2)[C@@H](C)n2nnnc2N1C (stereo partly drawn) [compound 21, (7R)-N-(3-(2-(4-(2-(4-((1-(2-(2,6-dioxopiperidin-3-yl)-1,3-dioxoisoindolin-5-yl)piperidin-4-yl)methyl)piperazin-1-yl)ethyl)piperazin-1-yl)pyridin-4-yl)-1H-indazol-5-y1)-4,5,7-trimethyl-4,7-dihydrotetrazolo[1,5-a]pyrimidine-6-carboxamide] |
| 50 to 70% | 10 to 50 nM | 50 to 70% | 50 to 100 nM | CC1=C(C(=O)Nc2ccc3[nH]nc(-c4ccnc(N5CCN(CCN6CCC(CC7CCN(c8ccc9c(c8)C(=O)N(C8CCC(=O)NC8=O)C9=O)CC7)CC6)CC5)c4)c3c2)[C@@H](C)n2nnnc2N1C (stereo partly drawn) [compound 23, (7R)-N-(3-(2-(4-(2-(4-((1-(2-(2,6-dioxopiperidin-3-yl)-1,3-dioxoisoindolin-5-yl)piperidin-4-yl)methyl)piperidin-1-yl)ethyl)piperazin-1-yl)pyridin-4-yl)-1H-indazol-5-yl)-4,5,7-trimethyl-4,7-dihydrotetrazolo[1,5-a]pyrimidine-6-carboxamide] |
| 50 to 70% | 10 to 50 nM | < 50% | 10 to 50 nM | CC1=C(C(=O)Nc2ccc3[nH]nc(-c4ccnc(N5CCN(C6CN(CC7CCN(c8ccc9c(c8)C(=O)N(C8CCC(=O)NC8=O)C9=O)CC7)C6)CC5)c4)c3c2)[C@@H](C)n2nnnc2N1C (stereo partly drawn) [compound 24, (7R)-N-[3-(2-{4-[1-({1-[2-(2,6-dioxopiperidin-3-yl)-1,3-dioxo-2,3-dihydro-1H-isoindol-5-yl]piperidin-4-yl}methyl)azetidin-3-yl]piperazin-1-yl}pyridin-4-yl)-1H-indazol-5-yl]-4,5,7-trimethyl-4H,7H-[1,2,3,4]tetrazolo[1,5-a]pyrimidine-6-carboxamide] |
